In US5001133A, “Benzoic acid derivatives” (Sandoz Ltd., priority 1983, dated 1991):

Experiments:
[1] = system: M receptors for serotonin; details: isolated rabbit vagus nerve; cited from earlier work
[2] = molecular target: T1, serotonin M receptor (Oryctolagus cuniculus, UniProt A0A5F9C9J3); assay: inhibition of the effect of serotonin on the isolated rabbit heart; details: antagonism of serotonin, read-out: pA2 (converted)
T1 construct: isolated rabbit heart; from tissue; host or cells: isolated rabbit heart
T1 sequence (A0A5F9C9J3 1-494): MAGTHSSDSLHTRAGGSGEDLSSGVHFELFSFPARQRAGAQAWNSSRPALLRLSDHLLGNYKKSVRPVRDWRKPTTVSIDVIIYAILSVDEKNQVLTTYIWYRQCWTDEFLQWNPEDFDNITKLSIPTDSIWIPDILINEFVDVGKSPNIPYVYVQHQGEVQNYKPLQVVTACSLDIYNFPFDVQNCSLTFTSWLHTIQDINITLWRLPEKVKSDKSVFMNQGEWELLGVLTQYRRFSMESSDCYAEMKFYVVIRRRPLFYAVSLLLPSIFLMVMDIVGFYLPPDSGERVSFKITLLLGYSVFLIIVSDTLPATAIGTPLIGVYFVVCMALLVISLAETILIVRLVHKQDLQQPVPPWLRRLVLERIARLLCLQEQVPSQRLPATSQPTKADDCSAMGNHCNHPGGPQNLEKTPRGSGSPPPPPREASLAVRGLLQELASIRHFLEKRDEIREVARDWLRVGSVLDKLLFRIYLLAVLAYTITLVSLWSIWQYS
From the text: The serotonin M receptor antagonist activity is also indicated by inhibiting the effect of serotonin on the isolated rabbit heart according to the method of J.R.Fozard and A.T.Moborak Ali, European Journal of Pharmacology, (1978), 49, 109-112 at concentrations of 10^-11 to 10^-5 M of the compound of the invention. pD'2 or pA2 values may be calculated in the conventional manner.
The compounds of formula I may be administered in similar manner to known standards for use in these utilities. The suitable daily dosage for a particular compound will depend on a number of factors such as its relative potency of activity.

[3] = system: 5-HT M-receptors; details: slow i.v. injection of 10 mg; cited from earlier work
[4] = system: serotonin M receptor; details: blister base, forearm of human volunteers; cited from earlier work

Structure (SMILES)	block of the action of serotonin on C fibre action potential amplitude [1]	also measured
CCN(CC)C(=O)[C@@H]1C=C2c3cccc4[nH]c(Br)c(c34)C[C@H]2N(C)C1 [BOL--148]	not blocked	
COC1CC2CC(OC(=O)c3c[nH]c4ccccc34)CC1N2C (stereo not drawn) [Example 2]		Kb [2]: 0.01 nM
CCN(CC)CCNC(=O)c1cc(Cl)c(N)cc1OC [Metoclopramide]		effect on a migraine attack [3]: immediate beneficial effect
CCN(CC)C(=O)[C@@H]1C=C2c3cccc4[nH]cc(c34)C[C@H]2N(C)C1 [lysergic acid diethylamide]		inhibition of the algesic action of serotonin [4]: not inhibited
CC[C@@H](CO)NC(=O)[C@@H]1C=C2c3cccc4c3c(cn4C)C[C@H]2N(C)C1 [methysergide]	not blocked	
CSc1ccc2c(c1)C(N1CCN(C)CC1)Cc1ccccc1S2 (stereo not drawn) [metitepine]	not blocked	
